Assay results from ChEMBL document CHEMBL1201862, “PubChem BioAssay data set” (2004).
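Interpolation was linear, between the two tested concentrations surrounding the appropriate level; five concentrations were tested over 48 hours in 96-well plates. Abbreviation: GI50, concentration required for 50% inhibition of growth.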 Activity calls are given as the source filed them. Cut-off read from the data, not from the text of the source: active = GI50 up to about 1.1 µM and inactive = higher.

What was measured:
Test in all cases: DTP human tumour cell line panel, 48 h
OVCAR-8 = system: OVCAR-8
M14 = system: M14
HCT-15 = system: HCT-15
SK-OV-3 = system: SK-OV-3
MCF7 = system: MCF7
RPMI-8226 = system: RPMI-8226
T47D = system: T47D
UACC-257 = system: UACC-257
SF-295 = system: SF-295
SNB-19 = system: SNB-19
OVCAR-5 = system: OVCAR-5
HCT-116 = system: HCT-116
HL-60 = system: HL-60
DU-145 = system: DU-145
PC-3 = system: PC-3
K562 = system: K562
MDA-N = system: MDA-N
786-0 = system: 786-0
HOP-92 = system: HOP-92
NCI-H522 = system: NCI-H522

Row | SMILES | GI50 (OVCAR-8) | GI50 (M14) | GI50 (HCT-15) [µM] | GI50 (SK-OV-3) | GI50 (MCF7) | GI50 (RPMI-8226) | GI50 (T47D) | GI50 (UACC-257) | GI50 (SF-295) | GI50 (SNB-19) | GI50 (OVCAR-5) | GI50 (HCT-116) | GI50 (HL-60) | GI50 (DU-145) | GI50 (PC-3) | GI50 (K562) | GI50 (MDA-N) | GI50 (786-0) | GI50 (HOP-92) | GI50 (NCI-H522)
1 | CC(=O)OC1CCC2(C)C(CCC3C4CC=C(C5(C)OCCO5)C4(C)CCC32)C1 (stereo unspecified) | 20.1 µM (inactive) | 23 µM (inactive) | 27.2 | 47.9 µM (inactive) | 22.6 µM (inactive) | 14.4 µM (inactive) | 22.9 µM (inactive) | 18.7 µM (inactive) | 26.1 µM (inactive) | 30.2 µM (inactive) | 22.1 µM (inactive) | 20.1 µM (inactive) | 19.9 µM (inactive) | 41.3 µM (inactive) | 17.3 µM (inactive) | 25.1 µM (inactive) | 20.3 µM (inactive) | 30.4 µM (inactive) |  | 
2 | C[C@@H](O)C(=O)N1[C@@H]2CC3CC[C@]2(CS1(=O)=O)C3(C)C | > 100 µM (inactive) | 93.5 µM (inactive) | 56.6 | > 100 µM (inactive) | > 100 µM (inactive) | 39.7 µM (inactive) | > 100 µM (inactive) | > 100 µM (inactive) | > 100 µM (inactive) | 65.8 µM (inactive) | > 100 µM (inactive) | 67.8 µM (inactive) | 28.9 µM (inactive) | 88.1 µM (inactive) | 96.8 µM (inactive) | 68.1 µM (inactive) |  | 52.8 µM (inactive) | 66.1 µM (inactive) | 
3 | COc1cc2c(cc1OCCCC(=O)Nc1cc(C(=O)Nc3cc(C(=O)Nc4cc(C(=O)NCCCN(C)C)n(C)n4)n(C)n3)n(C)n1)N=CC1CCCN1C2=O (stereo unspecified) | 32 µM (inactive) | 28 µM (inactive) | 5.69 | 45.2 µM (inactive) | 21.1 µM (inactive) | 5.74 µM (inactive) | 56 µM (inactive) | 19 µM (inactive) | 32.5 µM (inactive) | 18.3 µM (inactive) | 32.6 µM (inactive) | 60.8 µM (inactive) | 6.14 µM (inactive) | 35.4 µM (inactive) | 31.3 µM (inactive) | 4.43 µM (inactive) |  | 4.81 µM (inactive) | 4.68 µM (inactive) | 1.69 µM (inactive)
4 | O=c1c2ccccc2sc2cccc(NCCCN3CCN(CCCNc4cccc5sc6ccccc6c(=O)c45)CC3)c12 |  | > 100 µM (inactive) | > 100 | > 100 µM (inactive) | > 100 µM (inactive) | > 100 µM (inactive) | > 100 µM (inactive) | > 100 µM (inactive) | > 100 µM (inactive) | > 100 µM (inactive) | > 100 µM (inactive) | > 100 µM (inactive) | > 100 µM (inactive) | > 100 µM (inactive) | 85.1 µM (inactive) | > 100 µM (inactive) | > 100 µM (inactive) | > 100 µM (inactive) |  | > 100 µM (inactive)
5 | O=C(Nc1ccccc1)OCCN=c1c2ccccc2ccc2ccccc12 | 26.5 µM (inactive) | 19.1 µM (inactive) | 26.1 | 32.1 µM (inactive) | > 10 µM (inactive) | 15.5 µM (inactive) | 13.1 µM (inactive) | 15.8 µM (inactive) | 14 µM (inactive) | 15.9 µM (inactive) | 41.5 µM (inactive) | 16.9 µM (inactive) | 17 µM (inactive) | 28.8 µM (inactive) | 20.9 µM (inactive) | 14.7 µM (inactive) | 18.5 µM (inactive) | 32.7 µM (inactive) | 18.4 µM (inactive) | 
6 | ON=C1CCCCC(=NO)CCCC1 | > 100 µM (inactive) |  | > 100 | > 100 µM (inactive) | > 100 µM (inactive) | > 100 µM (inactive) | > 100 µM (inactive) | > 100 µM (inactive) | > 100 µM (inactive) | > 100 µM (inactive) |  | > 100 µM (inactive) |  | > 100 µM (inactive) | > 100 µM (inactive) | > 100 µM (inactive) | > 100 µM (inactive) | > 100 µM (inactive) | > 100 µM (inactive) | > 100 µM (inactive)
7 | CC(C)c1cc(CN(C)C)c(O)c(C(C)(C)C)c1 | 30.3 µM (inactive) | 28.4 µM (inactive) | 23.7 | 98.9 µM (inactive) | 16.5 µM (inactive) | 13.9 µM (inactive) | 24.7 µM (inactive) | 15.3 µM (inactive) | 19 µM (inactive) | 23.6 µM (inactive) | > 100 µM (inactive) | 36.9 µM (inactive) | 6.04 µM (inactive) | 36.4 µM (inactive) | 21.6 µM (inactive) |  | 26.6 µM (inactive) | 18.5 µM (inactive) |  | 15.9 µM (inactive)
8 | Cc1cn(C(=O)NC23CC4CC(CC(C4)C2)C3)c(=O)[nH]c1=O | 32.7 µM (inactive) | 36.1 µM (inactive) | 25.3 | 34.4 µM (inactive) | 31.6 µM (inactive) | 25.5 µM (inactive) | 31.3 µM (inactive) | 45.1 µM (inactive) | 36.5 µM (inactive) | 71.1 µM (inactive) | > 100 µM (inactive) | 34.4 µM (inactive) | 26.4 µM (inactive) | > 100 µM (inactive) | 35 µM (inactive) | 31.6 µM (inactive) | 13.2 µM (inactive) | 37.2 µM (inactive) | 51.6 µM (inactive) | 
9 | CCOC(=O)c1cc(C#N)[nH]c1-c1ccsc1 | 36.6 µM (inactive) | 41.7 µM (inactive) | 29.1 | 43.8 µM (inactive) | 14.3 µM (inactive) | 23.6 µM (inactive) |  | 36.2 µM (inactive) | 38 µM (inactive) | 56.1 µM (inactive) | 34.8 µM (inactive) | 38.4 µM (inactive) | 16.4 µM (inactive) | 24.3 µM (inactive) | 25.5 µM (inactive) | 25.6 µM (inactive) | 33.9 µM (inactive) | 44 µM (inactive) | 38.6 µM (inactive) | 30.3 µM (inactive)
10 | CN(C)C1(N(C)C)Oc2c(c(=O)n(C)c(=O)n2C)C(c2ccccc2Br)C1(F)F (stereo unspecified) |  | > 100 µM (inactive) | > 100 | > 100 µM (inactive) | > 100 µM (inactive) | > 100 µM (inactive) | > 100 µM (inactive) | > 100 µM (inactive) | > 100 µM (inactive) | > 100 µM (inactive) | > 100 µM (inactive) | > 100 µM (inactive) |  | > 100 µM (inactive) | > 100 µM (inactive) | > 100 µM (inactive) |  | > 100 µM (inactive) | > 100 µM (inactive) | 
11 | O=C(O)c1nc(-c2ccccn2)c(-c2ccccn2)nc1C(=O)O | 3.44 µM (inactive) | 1.42 µM (inactive) | 0.384 | 3.77 µM (inactive) |  | 2.86 µM (inactive) | 5.19 µM (inactive) | 4.35 µM (inactive) | 2.49 µM (inactive) | 5.04 µM (inactive) | 3.01 µM (inactive) | 1.67 µM (inactive) | 2.25 µM (inactive) | 2.47 µM (inactive) | 4.47 µM (inactive) | 3.66 µM (inactive) | 2.2 µM (inactive) | 2.61 µM (inactive) | 9.51 µM (inactive) | 4.28 µM (inactive)
12 | O=C(O)CSC(NC(=O)C(C(F)(F)F)C(F)(F)F)(C(F)(F)F)C(F)(F)F | 23.2 µM (inactive) | > 100 µM (inactive) | > 100 | > 100 µM (inactive) |  | > 100 µM (inactive) | > 100 µM (inactive) | > 100 µM (inactive) |  | > 100 µM (inactive) | > 100 µM (inactive) | > 100 µM (inactive) | > 100 µM (inactive) |  | > 100 µM (inactive) | > 100 µM (inactive) | > 100 µM (inactive) | > 100 µM (inactive) |  | 
13 | C=C1C2CC3CCC2C(OC(=O)c2ccccc2C(=O)O)C13 (stereo unspecified) | > 100 µM (inactive) | > 100 µM (inactive) | > 100 | > 100 µM (inactive) |  |  | > 100 µM (inactive) | > 100 µM (inactive) | > 100 µM (inactive) | > 100 µM (inactive) | > 100 µM (inactive) | > 100 µM (inactive) | > 100 µM (inactive) | > 100 µM (inactive) | > 100 µM (inactive) | > 100 µM (inactive) | > 100 µM (inactive) | > 100 µM (inactive) | > 100 µM (inactive) | > 100 µM (inactive)
14 | CN(C)/C=N/NC(=O)/C(C#N)=C/N(C)C | > 100 µM (inactive) | > 100 µM (inactive) | > 100 | > 100 µM (inactive) | > 100 µM (inactive) | > 100 µM (inactive) | > 100 µM (inactive) | > 100 µM (inactive) | > 100 µM (inactive) | > 100 µM (inactive) | > 100 µM (inactive) | > 100 µM (inactive) | > 100 µM (inactive) | > 100 µM (inactive) | > 100 µM (inactive) | > 100 µM (inactive) | > 100 µM (inactive) | > 100 µM (inactive) |  | > 100 µM (inactive)
15 | NC(Cc1c[nH]c2ccc([N+](=O)[O-])cc12)C(=O)O (stereo unspecified) | > 100 µM (inactive) | > 100 µM (inactive) | > 100 | > 100 µM (inactive) | > 100 µM (inactive) | > 100 µM (inactive) | > 100 µM (inactive) | > 100 µM (inactive) | > 100 µM (inactive) | > 100 µM (inactive) | > 100 µM (inactive) | > 100 µM (inactive) | > 100 µM (inactive) | > 100 µM (inactive) | > 100 µM (inactive) | > 100 µM (inactive) | > 100 µM (inactive) | > 100 µM (inactive) |  | > 100 µM (inactive)
